Reference: ChEMBL document CHEMBL1201862, “PubChem BioAssay data set” (2004)
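In this assay, cells in 96-well plates receive the compound at five concentrations for 48 hours. Endpoints are linearly interpolated between the surrounding concentrations. The concentration for 50% growth inhibition is given as GI50.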 The source made the active and inactive calls. Rule as the data show it: active = GI50 up to about 1.1 µM and inactive = higher.

Key:
Experiment in all cases: NCI-60 cell line screen, 48 h
DMS-273 = test system: DMS-273
XF498 = test system: XF498
DLD-1 = test system: DLD-1
HOP-18 = test system: HOP-18
DMS-114 = test system: DMS-114
Hs-578T = test system: Hs-578T
BT-549 = test system: BT-549
LXFL 529 = test system: LXFL 529
RXF 631 = test system: RXF 631

Row | Structure (SMILES) | GI50 (DMS-273) | GI50 (XF498) | GI50 (DLD-1) | GI50 (HOP-18) | GI50 (DMS-114) | GI50 (Hs-578T) | GI50 (BT-549) | GI50 (LXFL 529) | GI50 (RXF 631)
1 | O=C(O)/C=C/c1c[nH]cn1 | > 500 µM (inactive) | > 500 µM (inactive) | > 500 µM (inactive) | > 500 µM (inactive) | > 500 µM (inactive) |  |  |  | 
2 | CN1C[C@H]2[C@@H](C1=O)[C@H](c1ccccc1)ON2C |  |  |  |  |  | > 100 µM (inactive) |  |  | 
3 | CN(CCO)CCC1COc2ccccc2O1 (stereo not drawn) |  |  |  |  |  | > 10 µM (inactive) |  |  | 
4 | Cc1nnc2sc(N/N=C/c3ccccc3)nn12 |  |  |  |  |  | > 100 µM (inactive) | > 100 µM (inactive) |  | 
5 | N=C(N)N/N=C\c1c(-c2cccc([N+](=O)[O-])c2)nc2sccn12 |  |  |  |  |  | 3.62 µM (inactive) | 2.1 µM (inactive) |  | 
6 | COc1ccc(-c2nnc3c4ccccc4sn23)cc1 | 10.8 µM (inactive) |  |  | 23.2 µM (inactive) | 17.1 µM (inactive) |  |  | 23.7 µM (inactive) | 
7 | N#C/C(=C\c1ccc(Br)cc1)c1nc(-c2cc3ccccc3oc2=O)cs1 |  |  |  |  |  | 11.5 µM (inactive) | 7.29 µM (inactive) |  | 
8 | CC1=C2C(=C[C@H]3[C@]4(C)CCCC(C)(C)[C@H]4CC[C@]34O[C@H]24)OC1=O |  |  |  |  |  |  | > 100 µM (inactive) |  | 
9 | O=C1C[C@@H](C(=O)OCc2ccccc2)NC(=O)C[C@@H](C(=O)OCc2ccccc2)NC(=O)C[C@@H](C(=O)OCc2ccccc2)N1 |  |  |  |  |  | 13.1 µM (inactive) | > 100 µM (inactive) |  | 
10 | CC1(C)CNC(=O)C2(/C=N/C(C)(C)CNC(=O)C3(/C=N/1)CCCO3)CCCO2 (stereo not drawn) |  |  |  |  |  | > 10 µM (inactive) | > 10 µM (inactive) |  | 
11 | CC(C)(C)[Si](C)(C)OCC1CCC(n2cnc3c(N)ncnc32)O1 (stereo not drawn) |  |  |  |  |  | 72.1 µM (inactive) | 27 µM (inactive) |  | 
12 | N#CSCC1COc2ccccc2O1 (stereo not drawn) |  |  |  |  |  | > 10 µM (inactive) |  |  | 
13 | CCC1CN2CCC1CC2 (stereo not drawn) | > 100 µM (inactive) | > 100 µM (inactive) | > 100 µM (inactive) | > 100 µM (inactive) | > 100 µM (inactive) |  |  |  | 
14 | O=C1C2C(C(=O)N1OS(=O)(=O)c1ccccc1)N(Cc1ccccc1)C(=O)N2Cc1ccccc1 (stereo not drawn) |  | > 100 µM (inactive) | > 100 µM (inactive) |  | > 100 µM (inactive) |  |  | > 100 µM (inactive) | > 100 µM (inactive)
15 | Brc1ccc(C2CC(c3cccc4ccccc34)=Nc3ccccc3S2)cc1 (stereo not drawn) | 80 µM (inactive) | > 100 µM (inactive) | 51.8 µM (inactive) |  |  |  |  | > 100 µM (inactive) | 
16 | CC(=O)N(CCN1C(=O)c2ccccc2C1=O)CCN1C(=O)c2ccccc2C1=O | > 100 µM (inactive) | > 100 µM (inactive) | > 100 µM (inactive) |  | > 100 µM (inactive) |  |  | > 100 µM (inactive) | 
17 | COc1c(Cl)cc(S(=O)O)cc1Cl |  | > 100 µM (inactive) | > 100 µM (inactive) |  | > 100 µM (inactive) |  |  | > 100 µM (inactive) | 
18 | CC(NNC(=O)c1cc[n+]([BH2-]C#N)cc1)c1ccc(F)cc1 (stereo not drawn) |  |  |  |  |  | > 100 µM (inactive) | > 100 µM (inactive) |  | 
19 | COc1cc(C2c3[nH]c4ccccc4c3[C@@H](Nc3ccc(F)cc3)[C@H]3COC(=O)N23)cc(OC)c1O (stereo partly drawn) |  |  |  |  |  | 0.0962 µM (active) | 1.36 µM (inactive) |  | 
20 | C[C@H]1[C@@H]2C[C@@H]3O[C@@]34[C@H]3CCC5Cc6nc7c(nc6C[C@@]5(C)[C@]3(O)CC(=O)[C@@]24CO[C@]12OC(C)(C)C[C@@H]2O)CC1CC[C@@H]2C3=C[C@H]4O[C@@]5(OC(C)(CO)C[C@@H]5O)[C@H](C)[C@@]4(O)[C@]3(C)[C@@H](O)CC2[C@]1(C)C7 (stereo partly drawn) | 0.00345 µM (active) | 0.00769 µM (active) | 0.191 µM (active) | > 3.52 µM (inactive) | 0.0119 µM (active) |  |  |  | 
21 | COC(=O)[C@@H]1c2cc3c(c(O)c2[C@@H](OC)C[C@@]1(C)O)C(=O)c1c(O)cc2c(c1C3=O)OC1O[C@@]2(C)[C@H](O)[C@@H](N(C)C)[C@@H]1O | 0.118 µM (active) | 0.179 µM (active) | 1.86 µM (inactive) | 0.14 µM (active) | 0.217 µM (active) |  |  |  | 
22 | COc1cc(C(C)c2cc3c(cc2OCCO)OCO3)cc(OC)c1OC (stereo not drawn) | 0.413 µM (active) | < 0.01 µM (active) | 1.71 µM (inactive) | > 100 µM (inactive) | 0.562 µM (active) |  |  | 2.77 µM (inactive) | 
23 | Cn1c2ccccc2c(=O)c2c(O)cc3c(c21)C=CC(C)(C)O3 [NORACRONYCINE] | > 25 µM (inactive) | > 25 µM (inactive) | 19.4 µM (inactive) | 13.7 µM (inactive) | > 25 µM (inactive) |  |  |  | 
24 | O=C(O)CCCCCCCCC(=O)O [SEBACIC ACID] | 50 µM (inactive) | 3.62 µM (inactive) | 108 µM (inactive) | 387 µM (inactive) | 50 µM (inactive) |  |  |  | 
